# What was measured:
# [1] = system: J774 cells; assay: HPLC of nucleotides in extracts of cells loaded by ATP poration; format: cell-based, mouse; conditions: for intracellular nucleotides after loading (HPLC chromatogram): 20 min poration at 37° C. in DMEM pH 7.4 with 5 mM ATP, 5 mM AMP or 3.5 mM AMPS, FIG. 5
# Experimental: Acid soluble extracts of cell suspensions were prepared by adding ice-cold 70% perchloric acid to a final concentration of 7% (w/v). Acid insoluble fractions were removed by centrifugation for 10 min at 10,000 g and 4° C. (Eppendorf Centrifuge 5417R, Fischer Scientific, Pittsburgh, Pa.). Extracts were neutralized with ice-cold 5 M K2CO3, and were stored at −80° C. until analyzed. The potassium perchlorate precipitate was removed by centrifugation as above. Analyses were performed using a Dionex HPLC system, including a GP 50 gradient pump, an AS 50 auto-sampler and an AS 50 thermal compartment (Dionex, Sunnyvale, Calif.). Aliquots of the supernatant were applied to a 4.6 mm×25 cm reverse-phase column (Synergy 4M Hydro RP 80A, Phenomenex, Torrance, Calif.),and eluted isocratically for 15 min with a starting buffer of 50 mM K2HPO4/KH2PO4, pH 6.2, containing 10 mM tetrabutyl-ammonium hydrogen sulfate (Sigma, St. Louise, Mo.) at a flow rate of 1 mL/min at 30° C. Then a linear gradient from 0% to 25% acetonitrile was applied over 40 min. Absorbance of the effluent was monitored with a PDA-100 photodiode array detector (Dionex, Sunnyvale, Calif.) at wavelengths from λ=190 nm to λ=390 nm. Peaks were identified by comparison with retention times of standards, as well as by analyzing peak spectra between λ=190 nm and λ=390 nm from a recorded 3D-field with Chromeleon™ software (Dionex, Sunnyvale, Calif.). Concentrations of nucleotides were determined from a measurement of peak area at λ=260 nm. Calibration curves were linear over the range assayed.
# During poration, the cells were exposed to 5 mM AMP, or to 3.5 mM AMPS. Cells were extracted with perchloric acid after incubation. FIG. 5(A) depicts an HPLC chromatogram of the extracted AMP-loaded cells, and FIG. 5(B) depicts an HPLC chromatogram of the extracted AMPS-loaded cells.
# The experiment was otherwise conducted as described in Example 5 and illustrated in FIG. 5(B), except that cellular AMP-deaminase was inhibited by adding 35 μM coformycin to the medium.
# [2] = system: J774 cells; assay: Trehalose uptake with and without extracellular ATP; format: cell-based
# Experimental: Cell extracts were assayed for trehalose concentrations by separating carbohydrate peaks on a Hamilton RCX10 column, and then analyzing using pulsed amperometric electrochemical detection with an ESA Coulochem cell. […] The white bars are results from treatment for 15 minutes at 37° C. The cross-hatched bars are results from treatment for 15 minutes at 37° C., followed by 2 hours at 0° C. […] Each bar in FIG. 7 represents the mean of several different measurements. Although leaving the pores open for the longer periods of time at 37° C. can lead to cell death, the pores may be left open for longer periods at lower temperatures, while still leaving the cells viable and still allowing higher uptake of trehalose. At least 40% of the cells survived this treatment. We expect that the survivorship percentage will be improved by reducing the time the cells are held at 37° C. prior to chilling; future experiments will be done along these lines.
# [3] = system: AMP-activated protein kinase; conditions: cited from earlier work
# [4] = system: J774 cells; assay: AlamarBlue reduction, metabolic activity after ATP-dependent poration; format: cell-based, mouse
# Experimental: J774.A1 mouse macrophage cells (ATCC, Manassas, Va.) were grown in 75 cm^2 cell culture flasks (Corning Incorporated, Corning, N.Y.) containing a standard culture medium of Dubelco's modified Eagle's medium without sodium pyruvate, supplemented with 10% fetal bovine serum, 100 units/mL penicillin, 100 μg/mL streptomycin, and 2 mM glutamine (“DMEM”) (all from Invitrogen, Grand Islands, N.Y.). The cells were maintained in a humidified atmosphere of 10% CO2 and 90% air at 37° C. The number of cells per flask was determined with a hemocytometer after removal with a cell scraper. […]
# (§1) To assess the effect of ATP-induced permeability on cell viability, cells were grown in suspension after activation and subsequent closure of the P2X7 receptor, as described above. […] The number of viable cells at different times was determined by counting with a hemocytometer after diluting the sample 1:1 with a 0.4% Trypan blue solution (Sigma, St. Louise, Mo.). Alternatively, cell viability was assessed by monitoring the metabolic activity of the cells with AlamarBlue™ (BioSource International, Inc., Camarillo, Calif.). […] After adding 20,000 to 40,000 cells to each well, absorbances at λ=570 nm and λ=600 nm were measured with a micro plate reader (Spectramax Plus, Molecular Devices, Sunnyvale, Calif.) at different times. […]
# [5] = system: J774 cells; assay: Cell proliferation (cell counts) after ATP poration; format: cell-based, mouse; conditions: 15 min in Buffer 1+5 mM ATP, then spinner flask culture; FIG. 3
# Experimental: To introduce compounds that were otherwise membrane-impermeable into the cytoplasm, J774.A1 cells were centrifuged at 175 g; and were then resuspended in Buffer 1 (50 mM K2HPO4/KH2PO4, pH 7.0, 365 mOsm, 250 mM trehalose, 1 mM MgSO4, 5 mM glucose, supplemented with Basal Medium Eagle Vitamin Solution and MEM Amino Acids Solution (Invitrogen, Grand Islands, N.Y.), with each of the last two components diluted to 1×). […] The cells were incubated for 15 min or 30 min at 37° C. in sealed microtubes.
# as §1
# In another series of experiments, we assessed the degree to which cell proliferation was suspended following poration. […]
# [6] = system: J774 cells; assay: Calorimetric heat dissipation after ATP poration; format: cell-based, mouse; conditions: Buffer 1+5 mM ATP, 37° C., FIG. 4
# Experimental: Calorimetric measurements were conducted to assess the influence of various treatments on the total energy flow of J774 cells. A 2277 thermal activity monitor (LKB Produkter, Bromma, Sweden) was used to measure the heat dissipation of J774 cells in suspension. A 4 mL static ampule charged with 2.7 mL water was used as a reference vessel. Static and dynamic calibrations against water in both ampules were performed before the experimental heat signals were measured. For the experiments, the sample ampule was charged with 2.7 mL of cell suspension. An aliquot of the spinner flask culture was diluted with standard culture medium to give 130,000-250,000 cells in 2.7 mL, which was equilibrated with 10% CO2 and 90% air. All calorimetric measurements were performed at 37° C. A two-hour period was allowed for thermal equilibration after lowering the ampule into the calorimeter. The power signal was then recorded for the next 20 hours. The ongoing proliferation of the cells produced a continuous increase in the heat signal during the measurements.
# In this series of experiments, we assessed the influence of ATP-induced poration on the heat dissipation of J774 cells. […] Each bar in FIG. 4 represents the mean±standard deviation for three to six separate measurements. The pair of asterisks for the bar at three hours indicates a statistically significant difference from control (P<0.05).
# [7] = system: porated cells; assay: Early unpublished ATP-induced cell poration, cell survival; format: cell-based; conditions: ATP-induced poration as in literature, pores not closed early; usually within about 24 hours
# Source text: We observed that various dyes were indeed taken up by the cells as reported in the literature. But, at least in our experiments, we also invariably observed that the cells died soon thereafter.
# [8] = system: J774 cells; assay: Viability (trypan blue exclusion) after air-drying and rehydration; format: cell-based, mouse; conditions: 1 μM Trifluoperazine and 200 nM cyclosporin A together, in EB drying buffer and rehydration DMEM; versus control; FIG. 10
compound,measurement,setting,value
"Nc1ncnc2c1ncn2[C@@H]1O[C@H](COP(O)(O)=S)[C@@H](O)[C@H]1O [AMPS, Adenosine 5′-phosphorothioate]",intracellular AMPS with AMP-deaminase inhibited,"[1]; 3.5 mM AMPS, 5 mM ATP poration, 35 μM coformycin in medium, FIG. 6",substantial intracellular concentration of AMPS was observed
same,intracellular nucleotides after loading (HPLC chromatogram),[1],substantial production of a new compound
same,uptake by the cells in the absence of ATP,"[2]; no pore opening, data not shown",only negligible concentrations
same,"Km value, fold lower than the natural effector 5′-AMP",[3],approximately 6 fold
Nc1ncnc2c1ncn2[C@@H]1O[C@H](COP(=O)(O)O)[C@@H](O)[C@H]1O [AMP],intracellular nucleotides after loading (HPLC chromatogram),[1],"an increase in ADP, and a substantial increase in IMP"
"Nc1ncnc2c1ncn2[C@@H]1O[C@H](COP(=O)(O)OP(=O)(O)OP(=O)(O)O)[C@@H](O)[C@H]1O [ATP, adenosine 5′-triphosphate]",metabolic activity when poration time increased from 15 minutes to 30 minutes,"[4]; Buffer 1+5 mM ATP, measured 17 h and 41 h after treatment, FIG. 2",decreased substantially
same,reduction of metabolic activity (AlamarBlue reduction),"[4]; J774 cells, 40,000 per well, 15 min incubation, versus untreated control, FIG. 1",about 50%
same,time for which cell proliferation stopped after poration,[5],approximately 20 hours
same,heat dissipation 3 hours after poration,[6]; versus control cells,significantly reduced
same,heat signal 24 hours after poration,[6]; versus untreated control cells,indistinguishable from that for the untreated control cells
same,cells surviving extended pore opening at low temperature,"[2]; Buffer 1+5 mM ATP, 15 min at 37° C. followed by 2 hours at 0° C.",At least 40%
same,fate of porated cells in early work,[7],invariably died
OC[C@H]1O[C@@H](n2cnc3c2N=CNC[C@H]3O)[C@H](O)[C@@H]1O [coformycin],effect on the metabolism of AMPS in the cells,"[1]; 35 μM coformycin in medium, AMPS-loaded porated cells, FIG. 6",inhibited the metabolism of AMPS in the cells
OC[C@H]1O[C@H](O[C@H]2O[C@H](CO)[C@@H](O)[C@H](O)[C@H]2O)[C@H](O)[C@@H](O)[C@@H]1O [trehalose],trehalose uptake in ATP-treated cells,"[2]; Buffer 1+5 mM ATP (250 mM trehalose), versus Buffer 1 without ATP, 15 min 37° C. or plus 2 h 0° C., FIG. 7",significantly higher trehalose uptake
same,trehalose uptake in the absence of extracellular ATP,"[2]; Buffer 1 without ATP, FIG. 7",Some uptake of trehalose was observed
"CN1CCN(CCCN2c3ccccc3Sc3ccc(C(F)(F)F)cc32)CC1 [trifluoperazine, Trifluoperazine]",viability post-drying with apoptosis inhibitors,[8],higher viability post-drying
cyclosporin A,viability post-drying with apoptosis inhibitors,[8],higher viability post-drying
